Experimental data taken from article PMC5666424, “Marine-Derived 2-Aminoimidazolone Alkaloids. Leucettamine B-Related Polyandrocarpamines Inhibit Mammalian and Protozoan DYRK & CLK Kinases” (Marine Drugs, 2017).

Key:
Assay in all cases: KinomeScan
Assay type in all cases: binding
Conditions in all cases: 1 μM
EGFR(G719S) = target: T1, EGFR(G719S) (Homo sapiens, UniProt P00533, G719S)
T1 construct: purchased DiscoverX (KINOMEscan)

LATS1 = target: T2, LATS1 (Homo sapiens, UniProt O95835)
T2 construct: purchased DiscoverX (KINOMEscan)

STK39 = target: T3, STK39 (Homo sapiens, UniProt Q9UEW8)
T3 construct: purchased DiscoverX (KINOMEscan)

MAPKAPK2 = target: T4, MAPKAPK2 (Homo sapiens, UniProt P49137)
T4 construct: purchased DiscoverX (KINOMEscan)

MET(Y1235D) = target: T5, MET(Y1235D) (Homo sapiens, UniProt P08581, Y1235D)
T5 construct: purchased DiscoverX (KINOMEscan)
T5 sequence (P08581 25-1390 Y1235D): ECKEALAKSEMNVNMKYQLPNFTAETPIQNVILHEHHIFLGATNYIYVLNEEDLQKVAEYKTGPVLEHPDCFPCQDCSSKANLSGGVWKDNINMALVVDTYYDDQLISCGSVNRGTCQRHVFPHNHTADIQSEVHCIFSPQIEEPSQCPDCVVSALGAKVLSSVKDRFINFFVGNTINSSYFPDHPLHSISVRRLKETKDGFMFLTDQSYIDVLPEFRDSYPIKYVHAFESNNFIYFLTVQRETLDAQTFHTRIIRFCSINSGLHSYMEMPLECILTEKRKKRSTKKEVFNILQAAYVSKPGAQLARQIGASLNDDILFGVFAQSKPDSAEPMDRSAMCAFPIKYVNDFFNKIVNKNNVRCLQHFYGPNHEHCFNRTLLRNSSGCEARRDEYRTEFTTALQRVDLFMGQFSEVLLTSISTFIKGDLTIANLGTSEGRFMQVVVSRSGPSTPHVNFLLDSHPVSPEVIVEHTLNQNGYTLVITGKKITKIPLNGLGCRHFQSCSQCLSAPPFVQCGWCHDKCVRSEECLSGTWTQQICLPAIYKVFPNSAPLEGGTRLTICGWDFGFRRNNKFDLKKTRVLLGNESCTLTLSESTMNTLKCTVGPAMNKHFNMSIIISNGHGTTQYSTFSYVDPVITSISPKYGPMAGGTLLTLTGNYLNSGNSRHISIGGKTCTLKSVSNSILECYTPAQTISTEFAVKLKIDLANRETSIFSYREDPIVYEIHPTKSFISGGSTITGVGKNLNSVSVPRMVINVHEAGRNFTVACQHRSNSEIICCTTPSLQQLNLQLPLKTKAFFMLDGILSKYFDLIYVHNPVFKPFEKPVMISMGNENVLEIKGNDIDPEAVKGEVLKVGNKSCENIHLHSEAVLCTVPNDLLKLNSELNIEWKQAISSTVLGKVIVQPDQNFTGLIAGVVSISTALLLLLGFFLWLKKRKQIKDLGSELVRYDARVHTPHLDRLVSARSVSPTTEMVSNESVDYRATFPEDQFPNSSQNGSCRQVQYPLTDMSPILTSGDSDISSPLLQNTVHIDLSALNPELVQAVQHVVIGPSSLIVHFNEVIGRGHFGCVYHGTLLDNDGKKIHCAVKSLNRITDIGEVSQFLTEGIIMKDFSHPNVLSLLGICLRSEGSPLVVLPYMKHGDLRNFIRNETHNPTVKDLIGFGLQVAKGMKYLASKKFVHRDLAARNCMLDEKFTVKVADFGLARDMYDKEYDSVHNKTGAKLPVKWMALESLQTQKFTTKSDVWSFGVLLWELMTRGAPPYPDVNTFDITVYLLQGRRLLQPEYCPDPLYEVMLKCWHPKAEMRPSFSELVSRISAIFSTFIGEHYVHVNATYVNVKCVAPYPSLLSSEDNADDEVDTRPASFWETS

LYN = target: T6, LYN (Homo sapiens, UniProt P07948)
T6 construct: purchased DiscoverX (KINOMEscan)

CDC2L2 = target: T7, CDC2L2 (Homo sapiens, UniProt Q9UQ88)
T7 construct: purchased DiscoverX (KINOMEscan)
T7 sequence (Q9UQ88 whole entry): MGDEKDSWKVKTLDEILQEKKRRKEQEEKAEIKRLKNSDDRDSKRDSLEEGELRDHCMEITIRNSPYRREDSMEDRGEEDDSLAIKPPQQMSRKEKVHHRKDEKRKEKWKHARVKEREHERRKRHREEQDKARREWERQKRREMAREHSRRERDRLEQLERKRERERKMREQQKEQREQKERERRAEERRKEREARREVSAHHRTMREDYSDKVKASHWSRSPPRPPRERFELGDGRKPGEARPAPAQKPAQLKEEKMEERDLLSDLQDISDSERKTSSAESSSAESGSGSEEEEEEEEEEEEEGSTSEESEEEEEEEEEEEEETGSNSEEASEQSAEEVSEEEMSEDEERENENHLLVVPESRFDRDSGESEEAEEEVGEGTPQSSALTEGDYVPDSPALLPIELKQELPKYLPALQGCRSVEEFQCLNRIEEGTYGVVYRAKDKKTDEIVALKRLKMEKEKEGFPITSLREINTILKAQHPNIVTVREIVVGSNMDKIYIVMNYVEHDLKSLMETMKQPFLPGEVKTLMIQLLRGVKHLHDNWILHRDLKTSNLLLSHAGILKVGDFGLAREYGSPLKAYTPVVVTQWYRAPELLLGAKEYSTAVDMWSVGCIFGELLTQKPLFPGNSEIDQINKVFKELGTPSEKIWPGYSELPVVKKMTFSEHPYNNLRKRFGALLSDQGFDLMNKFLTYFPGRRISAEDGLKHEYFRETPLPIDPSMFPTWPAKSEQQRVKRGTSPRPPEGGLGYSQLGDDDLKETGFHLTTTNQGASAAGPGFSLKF

DMPK2 = target: T8, DMPK2 (Homo sapiens, UniProt Q6DT37)
T8 construct: purchased DiscoverX (KINOMEscan)

CAMK1G = target: T9, CAMK1G (Homo sapiens, UniProt Q96NX5)
T9 construct: purchased DiscoverX (KINOMEscan)

WEE2 = target: T10, WEE2 (Homo sapiens, UniProt P0C1S8)
T10 construct: purchased DiscoverX (KINOMEscan)

CSF1R = target: T11, CSF1R (Homo sapiens, UniProt P07333)
T11 construct: purchased DiscoverX (KINOMEscan)

TAOK1 = target: T12, TAOK1 (Homo sapiens, UniProt Q7L7X3)
T12 construct: purchased DiscoverX (KINOMEscan)

FGFR1 = target: T13, FGFR1 (Homo sapiens, UniProt P11362)
T13 construct: purchased DiscoverX (KINOMEscan)

EPHB6 = target: T14, EPHB6 (Homo sapiens, UniProt O15197)
T14 construct: purchased DiscoverX (KINOMEscan)

HIPK3 = target: T15, HIPK3 (Homo sapiens, UniProt Q9H422)
T15 construct: purchased DiscoverX (KINOMEscan)

EGFR(L858R,T790M) = target: T16, EGFR(L858R,T790M) (Homo sapiens, UniProt P00533, L858R/T790M)
T16 construct: purchased DiscoverX (KINOMEscan)

CLK2 = target: T17, CLK2 (Homo sapiens, UniProt P49760)
T17 construct: purchased DiscoverX (KINOMEscan)

MAPKAPK5 = target: T18, MAPKAPK5 (Homo sapiens, UniProt Q8IW41)
T18 construct: purchased DiscoverX (KINOMEscan)

CIT = target: T19, CIT (Homo sapiens, UniProt O14578)
T19 construct: purchased DiscoverX (KINOMEscan)

CAMK2G = target: T20, CAMK2G (Homo sapiens, UniProt Q13555)
T20 construct: purchased DiscoverX (KINOMEscan)

[1] = target: T21, JAK3(JH1domain-catalytic) (Homo sapiens, UniProt P52333)
T21 construct: JAK3(JH1domain-catalytic); purchased DiscoverX (KINOMEscan)

MST1 = target: T22, MST1 (Homo sapiens, UniProt Q13043)
T22 construct: purchased DiscoverX (KINOMEscan)

MLCK = target: T23, MLCK (Homo sapiens, UniProt Q32MK0)
T23 construct: purchased DiscoverX (KINOMEscan)
T23 sequence (Q32MK0 whole entry): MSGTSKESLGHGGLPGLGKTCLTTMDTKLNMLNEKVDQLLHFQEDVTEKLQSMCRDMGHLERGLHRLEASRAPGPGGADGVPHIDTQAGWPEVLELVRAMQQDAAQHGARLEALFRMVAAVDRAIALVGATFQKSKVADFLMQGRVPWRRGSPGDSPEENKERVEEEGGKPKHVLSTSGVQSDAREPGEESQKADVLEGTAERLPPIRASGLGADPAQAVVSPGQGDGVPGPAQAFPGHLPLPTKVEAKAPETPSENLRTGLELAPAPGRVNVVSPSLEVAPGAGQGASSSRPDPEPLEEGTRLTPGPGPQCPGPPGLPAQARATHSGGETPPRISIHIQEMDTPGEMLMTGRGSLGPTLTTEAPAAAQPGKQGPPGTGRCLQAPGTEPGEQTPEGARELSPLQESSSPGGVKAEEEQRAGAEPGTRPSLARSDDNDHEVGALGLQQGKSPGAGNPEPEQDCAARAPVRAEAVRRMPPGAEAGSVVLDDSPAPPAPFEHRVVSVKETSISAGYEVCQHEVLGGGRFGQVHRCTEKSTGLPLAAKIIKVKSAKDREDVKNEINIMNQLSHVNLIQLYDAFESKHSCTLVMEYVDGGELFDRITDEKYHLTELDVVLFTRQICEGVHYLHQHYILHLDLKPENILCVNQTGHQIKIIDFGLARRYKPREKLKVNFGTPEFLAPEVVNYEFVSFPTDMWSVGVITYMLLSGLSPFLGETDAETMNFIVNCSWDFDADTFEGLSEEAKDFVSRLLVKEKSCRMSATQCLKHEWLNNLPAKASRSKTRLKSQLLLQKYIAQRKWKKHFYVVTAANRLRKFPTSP

FRK = target: T24, FRK (Homo sapiens, UniProt P42685)
T24 construct: purchased DiscoverX (KINOMEscan)

FLT1 = target: T25, FLT1 (Homo sapiens, UniProt P17948)
T25 construct: purchased DiscoverX (KINOMEscan)

MINK = target: T26, MINK (Homo sapiens, UniProt Q8N4C8)
T26 construct: purchased DiscoverX (KINOMEscan)

CDKL1 = target: T27, CDKL1 (Homo sapiens, UniProt Q00532)
T27 construct: purchased DiscoverX (KINOMEscan)

AKT1 = target: T28, AKT1 (Homo sapiens, UniProt P31749)
T28 construct: purchased DiscoverX (KINOMEscan)

CSNK1E = target: T29, CSNK1E (Homo sapiens, UniProt P49674)
T29 construct: purchased DiscoverX (KINOMEscan)

EPHA7 = target: T30, EPHA7 (Homo sapiens, UniProt Q15375)
T30 construct: purchased DiscoverX (KINOMEscan)

EPHA6 = target: T31, EPHA6 (Homo sapiens, UniProt Q9UF33)
T31 construct: purchased DiscoverX (KINOMEscan)

NEK5 = target: T32, NEK5 (Homo sapiens, UniProt Q6P3R8)
T32 construct: purchased DiscoverX (KINOMEscan)
T32 sequence (Q6P3R8 whole entry): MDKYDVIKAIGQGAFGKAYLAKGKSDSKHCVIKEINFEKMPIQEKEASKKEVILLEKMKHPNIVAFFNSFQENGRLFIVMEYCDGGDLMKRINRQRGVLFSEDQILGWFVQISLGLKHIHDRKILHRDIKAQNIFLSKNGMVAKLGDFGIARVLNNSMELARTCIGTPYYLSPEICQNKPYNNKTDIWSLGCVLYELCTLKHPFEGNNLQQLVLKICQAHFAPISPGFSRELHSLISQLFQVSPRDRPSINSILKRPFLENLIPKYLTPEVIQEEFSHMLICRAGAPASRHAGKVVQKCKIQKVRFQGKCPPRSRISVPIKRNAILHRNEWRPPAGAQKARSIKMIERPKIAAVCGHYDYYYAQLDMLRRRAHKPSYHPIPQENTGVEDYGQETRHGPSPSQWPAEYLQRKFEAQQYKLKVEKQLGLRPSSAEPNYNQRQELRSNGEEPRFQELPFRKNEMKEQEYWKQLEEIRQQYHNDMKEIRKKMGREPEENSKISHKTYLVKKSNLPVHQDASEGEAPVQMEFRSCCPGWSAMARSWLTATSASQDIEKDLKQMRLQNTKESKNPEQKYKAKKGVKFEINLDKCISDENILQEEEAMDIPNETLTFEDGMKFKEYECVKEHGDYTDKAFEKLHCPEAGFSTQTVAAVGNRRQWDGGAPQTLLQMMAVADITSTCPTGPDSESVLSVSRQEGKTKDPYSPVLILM

BRAF(V600E) = target: T33, BRAF(V600E) (Homo sapiens, UniProt P15056, V600E)
T33 construct: purchased DiscoverX (KINOMEscan)

DAPK1 = target: T34, DAPK1 (Homo sapiens, UniProt P53355)
T34 construct: purchased DiscoverX (KINOMEscan)

MAP4K5 = target: T35, MAP4K5 (Homo sapiens, UniProt Q9Y4K4)
T35 construct: purchased DiscoverX (KINOMEscan)

SRPK2 = target: T36, SRPK2 (Homo sapiens, UniProt P78362)
T36 construct: purchased DiscoverX (KINOMEscan)

ULK1 = target: T37, ULK1 (Homo sapiens, UniProt O75385)
T37 construct: purchased DiscoverX (KINOMEscan)

T1 sequence (P00533 25-1210 G719S): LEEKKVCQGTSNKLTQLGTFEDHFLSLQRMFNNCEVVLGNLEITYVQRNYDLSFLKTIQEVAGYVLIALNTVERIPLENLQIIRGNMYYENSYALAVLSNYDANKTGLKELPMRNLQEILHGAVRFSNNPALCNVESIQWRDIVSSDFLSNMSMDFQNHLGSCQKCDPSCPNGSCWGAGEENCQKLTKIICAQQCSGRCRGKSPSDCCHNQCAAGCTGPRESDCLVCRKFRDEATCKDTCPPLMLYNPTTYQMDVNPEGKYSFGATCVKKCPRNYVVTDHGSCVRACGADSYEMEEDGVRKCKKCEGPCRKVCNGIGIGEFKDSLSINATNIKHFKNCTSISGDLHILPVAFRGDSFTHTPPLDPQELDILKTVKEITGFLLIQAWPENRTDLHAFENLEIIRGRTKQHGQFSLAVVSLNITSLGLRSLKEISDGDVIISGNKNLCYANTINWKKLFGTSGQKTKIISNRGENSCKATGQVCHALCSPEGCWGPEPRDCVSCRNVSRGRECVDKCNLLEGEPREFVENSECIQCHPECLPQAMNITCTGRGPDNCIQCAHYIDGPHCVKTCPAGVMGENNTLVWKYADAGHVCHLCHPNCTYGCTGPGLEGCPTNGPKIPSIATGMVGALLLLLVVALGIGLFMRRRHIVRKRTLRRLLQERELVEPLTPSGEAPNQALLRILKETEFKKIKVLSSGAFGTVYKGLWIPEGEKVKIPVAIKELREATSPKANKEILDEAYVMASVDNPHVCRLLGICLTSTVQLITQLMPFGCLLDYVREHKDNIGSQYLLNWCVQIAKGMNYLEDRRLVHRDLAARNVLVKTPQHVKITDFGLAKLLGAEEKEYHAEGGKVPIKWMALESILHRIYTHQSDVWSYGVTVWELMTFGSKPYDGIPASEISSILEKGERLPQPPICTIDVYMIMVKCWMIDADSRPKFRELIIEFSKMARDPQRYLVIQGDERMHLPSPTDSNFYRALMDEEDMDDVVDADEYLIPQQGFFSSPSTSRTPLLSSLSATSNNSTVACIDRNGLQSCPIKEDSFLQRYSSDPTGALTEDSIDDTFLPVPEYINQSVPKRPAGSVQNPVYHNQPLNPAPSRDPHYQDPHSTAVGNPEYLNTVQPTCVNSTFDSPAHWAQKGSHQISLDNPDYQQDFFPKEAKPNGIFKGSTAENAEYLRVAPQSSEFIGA

For `COc1cc(/C=C2\N=C(N)NC2=O)ccc1O` [Polyandrocarpamine A], the Score (EGFR(G719S)) was 100, the Score (LATS1) was 100 and the Score (STK39) was 100. It also gave a Score (MAPKAPK2) of 100, a Score (MET(Y1235D)) of 100 and a Score (LYN) of 89. The Score (CDC2L2) was 100, the Score (DMPK2) was 99 and the Score (CAMK1G) was 100. The Score (WEE2) was 100, the Score (CSF1R) was 87 and the Score (TAOK1) was 76. It also gave a Score (FGFR1) of 100, a Score (EPHB6) of 97 and a Score (HIPK3) of 19. The Score (EGFR(L858R,T790M)) was 100, the Score (CLK2) was 45 and the Score (MAPKAPK5) was 100. For the same molecule, the Score (CIT) was 100, the Score (CAMK2G) was 99 and the Score [1] was 84. For the same molecule, the Score (MST1) was 70, the Score (MLCK) was 100 and the Score (FRK) was 100. The Score (FLT1) was 100, the Score (MINK) was 100 and the Score (CDKL1) was 100. The Score (AKT1) was 100, the Score (CSNK1E) was 87 and the Score (EPHA7) was 100. The Score (EPHA6) was 100, the Score (NEK5) was 95 and the Score (BRAF(V600E)) was 96. It also gave a Score (DAPK1) of 79, a Score (MAP4K5) of 100 and a Score (SRPK2) of 100. It also gave a Score (ULK1) of 94.
